{
  "source": "patent US20260048062A1",
  "about": "“FUSED AMINO PYRIMIDINE COMPOUNDS FOR TREATMENT OF PSYCHOSIS AND PSYCHOTIC DISORDERS” (Ovid Therapeutics Inc., priority 2024, published 2026)",
  "key": {"[1]": {"test_system": "panel of 144 protein kinases", "assay": "SelectScreen panel of 144 protein kinases", "type": "biochemical", "conditions": "includes PKC isoforms, OSR1, SPAK (STK39), WNK", "procedure": "Aliquots of HEK-293 cells expressing KCC2 were exposed to 30 μM SSA, heated from 37-55° C. The remaining level of soluble native KCC2 at each temperature was measured by immunoblotting and normalized to the level seen at 37° C. which was given a value of 1. […] This panel included protein kinase C isoforms, OSR1, SPAK (STK39) and with-no-lysine kinases (WNK), all of which phosphorylate KCC2 on multiple residues to indirectly modify its activity (Kahle et al., 2013, supra; Smalley et al., 2020, supra)."}, "[2]": {"biological_target": "T1, KCC3 (Homo sapiens, UniProt Q9UHW9)", "T1 construct": "expressed in transfected cells; host or cells: HEK-293", "T1 sequence (Q9UHW9 1-1150)": "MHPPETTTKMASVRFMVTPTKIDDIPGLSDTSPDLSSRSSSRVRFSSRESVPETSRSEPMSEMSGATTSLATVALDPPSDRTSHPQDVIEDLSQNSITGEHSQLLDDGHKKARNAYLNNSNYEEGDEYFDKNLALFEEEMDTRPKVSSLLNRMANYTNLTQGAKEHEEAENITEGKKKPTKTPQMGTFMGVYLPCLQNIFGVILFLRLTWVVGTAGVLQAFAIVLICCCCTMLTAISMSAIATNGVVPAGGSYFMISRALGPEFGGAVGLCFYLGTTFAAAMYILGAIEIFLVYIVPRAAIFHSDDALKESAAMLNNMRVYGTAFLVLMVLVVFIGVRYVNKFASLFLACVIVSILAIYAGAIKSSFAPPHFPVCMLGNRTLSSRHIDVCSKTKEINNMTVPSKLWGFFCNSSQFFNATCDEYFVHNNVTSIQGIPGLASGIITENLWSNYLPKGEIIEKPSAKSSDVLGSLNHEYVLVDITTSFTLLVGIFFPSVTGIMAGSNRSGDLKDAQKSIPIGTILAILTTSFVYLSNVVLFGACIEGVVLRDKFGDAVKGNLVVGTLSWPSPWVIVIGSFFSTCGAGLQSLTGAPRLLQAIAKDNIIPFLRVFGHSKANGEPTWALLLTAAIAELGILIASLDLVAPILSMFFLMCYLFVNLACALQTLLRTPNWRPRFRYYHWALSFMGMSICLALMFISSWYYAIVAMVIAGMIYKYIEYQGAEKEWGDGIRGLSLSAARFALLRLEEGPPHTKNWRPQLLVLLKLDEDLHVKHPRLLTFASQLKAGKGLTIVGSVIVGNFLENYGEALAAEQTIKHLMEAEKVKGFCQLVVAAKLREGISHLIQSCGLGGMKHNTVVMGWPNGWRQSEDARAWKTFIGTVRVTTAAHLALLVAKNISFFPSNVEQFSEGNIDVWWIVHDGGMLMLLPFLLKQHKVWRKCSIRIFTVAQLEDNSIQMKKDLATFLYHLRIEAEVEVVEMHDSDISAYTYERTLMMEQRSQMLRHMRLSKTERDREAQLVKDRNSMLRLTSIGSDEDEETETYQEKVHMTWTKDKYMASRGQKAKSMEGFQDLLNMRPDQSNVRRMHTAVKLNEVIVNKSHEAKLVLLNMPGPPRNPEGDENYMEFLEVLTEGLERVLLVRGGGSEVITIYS", "assay": "Tl+ flux assay, HEK-293 cells expressing KCC3", "type": "cell-based", "conditions": "read-out: concentration at which effects on KCC3 were seen", "procedure": "FLIPR TI Flux assay. HEK-293 cells were washed with HBSS, and then incubated with loading buffer containing TI sensitive fluorescent dye (https://www.moleculardevices.com), 20 μM bumetanide 20 μM ouabain and 2.5 mM probenecid for 1 h at room temperature (RT) under control conditions or with drugs in the dark using a FlexStation 3 microplate reader (Molecular Devices) and imaged […] for 30 min. Stimulus buffer was added containing 5 mM K^+/0.5 mM Tl^+ and cells were imaged every 1.5 over a 190 second time course The initial rate Tl^+ uptake (Relative Fluorescence Units (RFU) per second) was determined following addition of the stimulus buffer as outlined previously (Conway et al., 2017, supra) (Lee et al., 2022, supra).\nCompared to KCC2, effects on KCC3, KCC4, and NKCC1 were only seen at concentrations more than 35-fold that of KCC2 (>100 μM) (FIG. 1G)."}},
  "data": [
    {"smiles": "C[C@@H]1CN(c2nc3c(c(Nc4ccc(C5CCCCC5)cc4)n2)COC3)CCO1", "note": "[Compound A, (R)—N-(4-cyclohexylphenyl)-2-(2-methylmorpholino)-5,7-dihydrofuro[3,4-d]pyrimidin-4-amine]", "values": [
      {"measurement": "activity of a panel of 144 protein kinases", "setting": "[1]", "result": "did not modify the activity"},
      {"measurement": "EC50", "setting": "[2]", "result": "> 100", "unit": "µM"}
    ]}
  ]
}
